Results from patent US8088927B2, “Fungicide N-cycloalkyl-benzyl-amide derivatives” (Bayer Cropscience AG, priority 2006, dated 2012).

Experiment: log P determination by HPLC on reversed-phase column (C 18), EEC Directive 79/831 Annex V.A8
Type: physicochemical
Settings: HPLC on reversed-phase column (C 18)
Procedure: Temperature: 40° C.; Mobile phases: 0.1% aqueous formic acid and acetonitrile; linear gradient from 10% acetonitrile to 90% acetonitrile.
Calibration was carried out using unbranched alkan-2-ones (comprising 3 to 16 carbon atoms) with known log P values (determination of the log P values by the retention times using linear interpolation between two successive alkanones).

LogP	SMILES
4.19	Cc1nc(C(F)(F)F)c(C(=O)N(Cc2ccc(Cl)cc2Cl)C2CC2)s1 [Compound 168]
3.74	Cc1nc(C(F)F)c(C(=O)N(Cc2ccc(Cl)cc2Cl)C2CC2)s1 [Compound 169]
4.52	Cc1nc(C(F)(F)F)c(C(=O)N(Cc2c(Cl)cc(Cl)cc2Cl)C2CC2)s1 [Compound 170]
4.1	Cc1nc(C(F)F)c(C(=O)N(Cc2c(Cl)cc(Cl)cc2Cl)C2CC2)s1 [Compound 171]
3.37	Cc1nc(C(F)F)c(C(=O)N(Cc2ccc(C(F)(F)F)cc2)C2CC2)s1 [Compound 172]
3.9	Cc1nc(C(F)F)c(C(=O)N(C2CC2)C(C)c2ccc(Cl)cc2Cl)s1 (stereo not drawn) [Compound 173]
3.61	Cc1nc(C(F)F)c(C(=O)N(C2CC2)C(C#N)c2ccc(Cl)cc2Cl)s1 (stereo not drawn) [Compound 209]
3.14	Cc1nc(C(F)F)c(C(=O)N(C2CC2)C(C#N)c2c(Cl)cccc2Cl)s1 (stereo not drawn) [Compound 213]
3.04	Cc1nn(C)c(F)c1C(=O)N(Cc1ccc(Cl)cc1Cl)C1CC1 [Compound 236]
2.8	Cc1nn(C)c(F)c1C(=O)N(Cc1ccc(C(F)(F)F)cc1)C1CC1 [Compound 237, N-(4-trifluoromethyl-benzyl)-N-cyclopropyl-5-fluoro-1,3-dimethyl-1H-pyrazole-4-carboxamide]
3.32	Cc1nn(C)c(F)c1C(=O)N(Cc1c(Cl)cc(Cl)cc1Cl)C1CC1 [Compound 238]
3.27	Cn1cc(C(=O)N(Cc2ccc(Cl)cc2Cl)C2CC2)c(C(F)F)n1 [Compound 241]
2.98	Cn1cc(C(=O)N(Cc2ccc(C(F)(F)F)cc2)C2CC2)c(C(F)F)n1 [Compound 242]
3.46	Cn1cc(C(=O)N(Cc2c(Cl)cc(Cl)cc2Cl)C2CC2)c(C(F)F)n1 [Compound 243]
3.37	Cn1cc(C(=O)N(Cc2ccc(Oc3ccccc3)cc2)C2CC2)c(C(F)F)n1 [Compound 244]
3.31	CC(c1ccc(Cl)cc1Cl)N(C(=O)c1cn(C)nc1C(F)F)C1CC1 (stereo not drawn) [Compound 245]
3.27	CC(c1ccc(C(F)(F)F)cc1)N(C(=O)c1cn(C)nc1C(F)F)C1CC1 (stereo not drawn) [Compound 246]
2.81	COc1nn(C)cc1C(=O)N(Cc1ccc(Cl)cc1Cl)C1CC1 [Compound 251]
3.58	Cn1cc(C(=O)N(Cc2ccc(Cl)cc2Cl)C2CC2)c(C(F)(F)F)n1 [Compound 252]
3.22	CCOc1nn(C)cc1C(=O)N(Cc1ccc(Cl)cc1Cl)C1CC1 [Compound 253]
3.15	Cn1cc(C(=O)N(Cc2ccc(Cl)cc2Cl)C2CC2)c(I)n1 [Compound 254]

LogP	SMILES
2.97	COc1nn(C)cc1C(=O)N(Cc1c(Cl)cc(Cl)cc1Cl)C1CC1 [Compound 255]
3.78	Cn1cc(C(=O)N(Cc2c(Cl)cc(Cl)cc2Cl)C2CC2)c(C(F)(F)F)n1 [Compound 256]
3.35	CCOc1nn(C)cc1C(=O)N(Cc1c(Cl)cc(Cl)cc1Cl)C1CC1 [Compound 257]
3.34	Cn1cc(C(=O)N(Cc2c(Cl)cc(Cl)cc2Cl)C2CC2)c(I)n1 [Compound 258]
2.61	COc1nn(C)cc1C(=O)N(Cc1ccc(C(F)(F)F)cc1)C1CC1 [Compound 259]
3.29	Cn1cc(C(=O)N(Cc2ccc(C(F)(F)F)cc2)C2CC2)c(C(F)(F)F)n1 [Compound 260]
2.92	CCOc1nn(C)cc1C(=O)N(Cc1ccc(C(F)(F)F)cc1)C1CC1 [Compound 261]
2.92	Cn1cc(C(=O)N(Cc2ccc(C(F)(F)F)cc2)C2CC2)c(I)n1 [Compound 262]
3.19	Cc1nn(C)c(F)c1C(=O)N(C1CC1)C(C)c1ccc(Cl)cc1Cl (stereo not drawn) [Compound 263]
2.83	COc1nn(C)cc1C(=O)N(C1CC1)C(C)c1ccc(Cl)cc1Cl (stereo not drawn) [Compound 264]
3.19	CCOc1nn(C)cc1C(=O)N(C1CC1)C(C)c1ccc(Cl)cc1Cl (stereo not drawn) [Compound 265]
3.22	CC(c1ccc(Cl)cc1Cl)N(C(=O)c1cn(C)nc1I)C1CC1 (stereo not drawn) [Compound 266]
2.57	COC(=O)C(c1ccccc1Cl)N(C(=O)c1c(C)nn(C)c1F)C1CC1 (stereo not drawn) [Compound 383]
3.15	Cc1nn(C)c(F)c1C(=O)N(C1CC1)C(C#N)c1ccc(Cl)cc1Cl (stereo not drawn) [Compound 385]
3.53	CCC(c1ccc(Cl)cc1Cl)N(C(=O)c1c(C)nn(C)c1F)C1CC1 (stereo not drawn) [Compound 386]
2.66	Cc1nn(C)c(F)c1C(=O)N(Cc1cccc(Br)c1)C1CC1 [Compound 412]
2.67	Cc1nn(C)c(F)c1C(=O)N(Cc1ccc(Br)cc1)C1CC1 [Compound 422]
2.96	COC(c1ccc(Cl)cc1Cl)N(C(=O)c1c(C)nn(C)c1F)C1CC1 (stereo not drawn) [Compound 500]
2.40	Cn1cnc(C(=O)N(Cc2c(Cl)cc(Cl)cc2Cl)C2CC2)c1 [Compound 503]
2.4	CCn1nc(C)c(Br)c1C(=O)N(Cc1c(Cl)cc(Cl)cc1Cl)C1CC1 [Compound 541]

Same assay, conditions: HPLC, C 18, 40° C., 0.1% aqueous formic acid and acetonitrile gradient

LogP	SMILES
3.77	Cc1occc1C(=O)N(Cc1ccc(Cl)cc1Cl)C1CC1 [Compound 11]
4.6	Cc1cc(C(=O)N(Cc2ccc(Cl)cc2Cl)C2CC2)c(C(F)(F)F)o1 [Compound 12]
4.09	Cc1occc1C(=O)N(Cc1c(Cl)cc(Cl)cc1Cl)C1CC1 [Compound 13]
4.91	Cc1cc(C(=O)N(Cc2c(Cl)cc(Cl)cc2Cl)C2CC2)c(C(F)(F)F)o1 [Compound 14]
3.43	Cc1occc1C(=O)N(Cc1ccc(C(F)(F)F)cc1)C1CC1 [Compound 15]
4.18	Cc1cc(C(=O)N(Cc2ccc(C(F)(F)F)cc2)C2CC2)c(C(F)(F)F)o1 [Compound 16]
4.48	O=C(c1sccc1I)N(Cc1ccc(Cl)cc1Cl)C1CC1 [Compound 58]
4.86	O=C(c1sccc1I)N(Cc1c(Cl)cc(Cl)cc1Cl)C1CC1 [Compound 59]
4.04	O=C(c1sccc1I)N(Cc1ccc(C(F)(F)F)cc1)C1CC1 [Compound 60]
3.88	Cn1cc(C(=O)N(Cc2ccc(Cl)cc2Cl)C2CC2)c(C(F)(F)F)c1 [Compound 98]
4.08	Cn1cc(C(=O)N(Cc2c(Cl)cc(Cl)cc2Cl)C2CC2)c(C(F)(F)F)c1 [Compound 99]
3.55	Cn1cc(C(=O)N(Cc2ccc(C(F)(F)F)cc2)C2CC2)c(C(F)(F)F)c1 [Compound 100]

Same assay, conditions: reversed-phase HPLC column (C 18); HPLC, C 18, 40° C., 0.1% aqueous formic acid and acetonitrile gradient

chromatographic logP	SMILES
2.8	Cc1nn(C)c(F)c1C(=O)N(Cc1ccc(C(F)(F)F)cc1)C1CC1 [Compound 237, N-(4-trifluoromethyl-benzyl)-N-cyclopropyl-5-fluoro-1,3-dimethyl-1H-pyrazole-4-carboxamide]
